Experimental data published in patent US5643920A, “Tricyclic compound having anti-allergic activities” (Mochida Pharmaceutical Co., Ltd., priority 1992, dated 1997).

These compounds were tested on mice (assay: Acute toxicity, oral). Details: 1000 mg/kg oral, three mice per group, observed for 7 days.
Type: in vivo
Protocol: To groups of three mice each having a body weight of 20 to 30 g were orally administered 1000 mg/kg of the compounds of Examples 15 and 117 of the present invention.
For `NN=C1CCn2c(-c3ccc(Cl)cc3)nc3cccc1c32` [Example 15, 2-(4-chlorophenyl)-4,5-dihydro-6H-imidazo-[4,5,1-ij]quinolin-6-one hydrazone], the “death within 7 days (acute toxicity)” value was “no mouse was found dead”. For `NN=C1CCc2c(-c3ccc(Cl)cc3)cn3cccc1c23` [Example 117, 1-(4-chlorophenyl)-8,9-dihydro-7H-pyrrolo-[3,2,1-ij]quinolin-7-one hydrazone], the “death within 7 days (acute toxicity)” value was “no mouse was found dead”.

What follows are compounds tested on sensitized rat peritoneal cells (histamine release) (assay: Activity to suppress the histamine release from passively sensitized rat peritoneal cells). Details: 10 min, 1 μg/ml, 2×10^4 sensitized peritoneal cells, egg albumin, ten minutes, read-out: Percentage of the histamine release suppressed.
Type: cell-based, male Wistar rats
Protocol: Peritoneal cells were collected from male Wistar rats (9 week-old) killed by exsanguination. The cells were washed by centrifugation, and passively sensitized with rat anti-egg albumin serum. 2×10^4 of the sensitized peritoneal cells (1×10^4 of the sensitized peritoneal cells in the case of the compound of Example 12) were reacted with the solution of the test compound (in 0.1% bovine serum albumin solution in HBSS (Hanks' balanced salt solution) containing 0.1% DMSO). Egg albumin was added as allergen, the reaction was allowed to take place for ten minutes. After the cease of the reaction, the amount of the histamine released was determined by post-column fluorometric assay using high-speed liquid chromatography.
The amount of the test compounds administered and the percentage of the histamine release suppressed calculated by equation 2 are shown in Table 2.
Example 123: 1-(4-chlorophenyl)-8,9-dihydro-7H-pyrrolo-[3,2,1-ij]quinolin-7-one tosylhydrazone. [formula]
Compound `NN=C1CCn2c(-c3ccc(Cl)cc3)nc3cccc1c32` [Example 15, 2-(4-chlorophenyl)-4,5-dihydro-6H-imidazo-[4,5,1-ij]quinolin-6-one hydrazone] has an inhibition at 1 µg/mL of 42%.

Same assay, conditions: 10 min, 3 μg/ml, 2×10^4 sensitized peritoneal cells, egg albumin, ten minutes, read-out: Percentage of the histamine release suppressed
For `CC(C)=NN=C1CCn2c(-c3ccc(Cl)cc3)nc3cccc1c32` [Example 14, 2-(4-chlorophenyl)-4,5-dihydro-6H-imidazo-[4,5,1-ij]quinolin-6-one isopropylidenehydrazone], the inhibition at 3 µg/mL was 55%. `Clc1ccc(-c2nc3cccc4c3n2CCC4=NNc2ccccc2)cc1` [Example 17, 2-(4-chlorophenyl)-4,5-dihydro-6H-imidazo-[4,5,1-ij]quinolin-6-one phenylhydrazone] was tested, and the inhibition at 3 µg/mL was 40%. With `Clc1ccc(-c2cn3cccc4c3c2CCC4=NNc2ccccc2)cc1` [Example 119, 1-(4-chlorophenyl)-8,9-dihydro-7H-pyrrolo-[3,2,1-ij]quinolin-7-one phenylhydrazone] the inhibition at 3 µg/mL was 42%. In the case of `Cc1ccc(S(=O)(=O)NN=C2CCc3c(-c4ccc(Cl)cc4)cn4cccc2c34)cc1` [Example 123, 1-(4-chlorophenyl)-8,9-dihydro-7H-pyrrolo-[3,2,1-ij]quinolin-7-one tosylhydrazone], the inhibition at 3 µg/mL is reported as 33%.

Same assay, conditions: 10 min, 10 μg/ml, 1×10^4 sensitized peritoneal cells (Example 12), egg albumin, ten minutes, read-out: Percentage of the histamine release suppressed
`OC1CCn2c(-c3ccc(Cl)cc3)nc3cccc1c32` (centres unmarked) [Example 12, 2-(4-chlorophenyl)-4,5-dihydro-6-hydroxy-6H-imidazo[4,5,1-ij]quinoline] showed an inhibition at 10 µg/mL of 49%.

Same assay, conditions: 10 min, 10 μg/ml, 2×10^4 sensitized peritoneal cells, egg albumin, ten minutes, read-out: Percentage of the histamine release suppressed
`NN=C1CCc2c(-c3ccc(Br)cc3)cn3cccc1c23` [Example 4, 1-(4-bromophenyl)-8,9-dihydro-7H-pyrrolo[3,2,1-ij]quinolin-7-one hydrazone] showed an inhibition at 10 µg/mL of 50%. Compound `NN=C1CCc2c(-c3ccc(Cl)cc3)cn3cccc1c23` [Example 117, 1-(4-chlorophenyl)-8,9-dihydro-7H-pyrrolo-[3,2,1-ij]quinolin-7-one hydrazone] has an inhibition at 10 µg/mL of 47%. Work on `CCOC(=O)C(=O)NC1CCc2c(-c3ccc(Cl)cc3)cn3cccc1c23` (centres unmarked) [Example 122, 1-(4-chlorophenyl)-8,9-dihydro-7-ethoxyoxalylamino-7H-pyrrolo[3,2,1-ij]quinoline] yielded an inhibition at 10 µg/mL of 98%.

The compounds below were run on IgE antibody production (assay: Activity to inhibit the IgE antibody production in mice sensitized with egg albumin (ELISA of plasma IgE)). Details: Mus musculus, 240 h; 3 mg/kg/day, oral, once a day for seven times; blood ten days after sensitization; BALB/c mice; read-out: Percentage of the IgE antibody production inhibited.
Type: in vivo, male BALB/c mice
Protocol: Groups of five male BALB/c mice (body weight: 20 to 25 g) each were sensitized by intraperitoneally injection with 4 mg of aluminum hydroxide to which absorbed 10 μg of egg albumin. The test compound is suspended in a gum arabic solution, and the suspensions of different concentrations were orally administered to the animals once a day for seven times in total from immediately after the sensitization. The gum arabic suspension having no test compound added was used for the control.
Blood was collected from the animal ten days after the sensitization, and the collected blood was evaluated for the amount of the IgE antibody produced by ELISA. In brief, the plasma sample was added to immobilized anti-mouse igE antibody, and then, reacting with the anti-mouse IgE antibody having labeled with horseradish peroxidase. The amount of the IgE antibody produced was calculated by using the activity of the horseradish peroxidase for the index (See Meneki-to-Shikkan (Immune and Diseases), 15, 211-216, 1988).
In Table 1, there are shown the amount of the test compounds administered and the percentage of the IgE antibody production inhibited calculated by equation 1: [formula]
`Clc1ccc(-c2cn3cccc4c3c2CCC4)cc1` [Example 3, 1-(4-chlorophenyl) -8,9-dihydro-7H-pyrrolo-[3,2,1-ij]quinoline] was tested, and the inhibition at 3 mg/kg was 64%. For `Fc1ccc(-c2cn3cccc4c3c2CCC4)cc1` [Example 99, 8,9-dihydro-1-(4-fluorophenyl)-7H-pyrrolo-[3,2,1-ij]quinoline], the inhibition at 3 mg/kg was 43%.

Same assay, conditions: Mus musculus, 240 h; 10 mg/kg/day, oral, once a day for seven times; blood ten days after sensitization; BALB/c mice; read-out: Percentage of the IgE antibody production inhibited
With `NC1CCc2c(-c3ccc(Cl)cc3)cn3cccc1c23` (centres unmarked) [Example 7, 7-amino-1-(4-chlorophenyl)-8,9-dihydro-7H-pyrrolo[3,2,1-ij]quinoline] the inhibition at 10 mg/kg was 49%. With `C=C1CCc2c(-c3ccc(Cl)cc3)cn3cccc1c23` [Example 9, 1-(4-chlorophenyl)-8,9-dihydro-7-methylene-7H-pyrrolo[3,2,1-ij]quinoline] the inhibition at 10 mg/kg was 65%. `Brc1ccc(-c2cn3cccc4c3c2CCC4)cc1` [Example 100, 1-(4-bromophenyl)-8,9-dihydro-7H-pyrrolo-[3,2,1-ij]quinoline] was tested, and the inhibition at 10 mg/kg was 77%. `c1ccc2cc(-c3cn4cccc5c4c3CCC5)ccc2c1` [Example 108, 8,9-dihydro-1-(2-naphthyl)-7H-pyrrolo[3,2,1-ij]quinoline] gave an inhibition at 10 mg/kg of 71%. `Cc1ccc(-c2cn3cccc4c3c2CCC4)cc1` [Example 109, 8,9-dihydro-1-(4-methylphenyl)-7H-pyrrolo-[3,2,1-ij]quinoline] showed an inhibition at 10 mg/kg of 45%.

Same assay, conditions: Mus musculus, 240 h; 30 mg/kg/day, oral, once a day for seven times; blood ten days after sensitization; BALB/c mice; read-out: Percentage of the IgE antibody production inhibited
With `NN=C1CCc2c(-c3ccc(Br)cc3)cn3cccc1c23` [Example 4, 1-(4-bromophenyl)-8,9-dihydro-7H-pyrrolo[3,2,1-ij]quinolin-7-one hydrazone] the inhibition at 30 mg/kg was 47%. `NN=C1CCn2c(-c3ccc(Cl)cc3)nc3cccc1c32` [Example 15, 2-(4-chlorophenyl)-4,5-dihydro-6H-imidazo-[4,5,1-ij]quinolin-6-one hydrazone] showed an inhibition at 30 mg/kg of 53%. `CON=C1CCn2c(-c3ccc(Cl)cc3)nc3cccc1c32` [Example 16, 2-(4-chlorophenyl)-4,5-dihydro-6-methoxyimino-6H-imidazo[4,5,1-ij]quinoline] showed an inhibition at 30 mg/kg of 54%. `NC1CCn2c(-c3ccc(C(F)(F)F)cc3)nc3cccc1c32` (centres unmarked) [Example 71, 6-amino-4,5-dihydro-2-(4-trifluoromethylphenyl)-imidazo[4,5,1-ij]quinoline] was tested, and the inhibition at 30 mg/kg was 78%. `O=C1CCc2c(-c3ccc(C(F)(F)F)cc3)cn3cccc1c23` [Example 81, 8,9-dihydro-1-(4-trifluoromethylphenyl)-7H-pyrrolo[3,2,1-ij]quinolin-7-one] gave an inhibition at 30 mg/kg of 61%. Work on `ON=C1CCc2c(-c3ccc(C(F)(F)F)cc3)cn3cccc1c23` [Example 92, 8,9-dihydro-1-(4-trifluoromethylphenyl)-7H-pyrrolo[3,2,1-ij]quinolin-7-oneoxi] yielded an inhibition at 30 mg/kg of 50%. Compound `NN=C1CCc2c(-c3ccc(Cl)cc3)cn3cccc1c23` [Example 117, 1-(4-chlorophenyl)-8,9-dihydro-7H-pyrrolo-[3,2,1-ij]quinolin-7-one hydrazone] has an inhibition at 30 mg/kg of 44%. In the case of `CC(C)=NN=C1CCc2c(-c3ccc(Cl)cc3)cn3cccc1c23` [Example 124, 1-(4-chlorophenyl)-8,9-dihydro-7H-pyrrolo-[3,2,1-ij]quinolin-7-one isopropylidenehydrazone], the inhibition at 30 mg/kg is reported as 45%. For `FC(F)(F)c1ccc(-c2cn3cccc4c3c2CCC4)cc1` [Example 130, 8,9-dihydro-1-(4-trifluoromethylphenyl)-7H-pyrrolo[3,2,1-ij]quinoline], the inhibition at 30 mg/kg was 86%. Compound `NC1CCc2c(-c3ccc(C(F)(F)F)cc3)cn3cccc1c23` (centres unmarked) [Example 132, 7-amino-8,9-dihydro-1-(4-trifluoromethylphenyl)-7H-pyrrolo[3,2,1-ij]quinoline] has an inhibition at 30 mg/kg of 80%. `ON=C1CCn2c(-c3ccccc3)nc3cccc1c32` [Reference Example 30, 2-phenyl-4,5-dihydro-6H-imidazo-[4,5,1-ij]quinolin-6-one oxime] gave an inhibition at 30 mg/kg of 32%. `ON=C1CCn2c(-c3ccc(Br)cc3)nc3cccc1c32` [Reference Example 33, 2-(4-bromophenyl)-4,5-dihydro-6H-imidazo[4,5,1-ij]quinolin-6-one oxime] gave an inhibition at 30 mg/kg of 41%. `ON=C1CCn2c(-c3ccc(C(F)(F)F)cc3)nc3cccc1c32` [Reference Example 34, 2-(4-trifluoromethylphenyl)-4,5-dihydro-6H-imidazo[4,5,1-ij]quinolin-6-oneoxime] was tested, and the inhibition at 30 mg/kg was 32%. In the case of `ON=C1CCn2c(-c3ccc4ccccc4c3)nc3cccc1c32` [Reference Example 36, 2-(2-naphthyl)-4,5-dihydro-6H-imidazo[4,5,1-ij]quinolin-6-one oxime], the inhibition at 30 mg/kg is reported as 50%.
